From patent US20230286919A1, “ISOQUINOLINE DERIVATIVES FOR USE IN THERAPY” (Vestlandets Innovasjonsselskap AS, priority 2020, published 2023)

Experiments:
DU145 cells = assay: Flow cytometric analysis of cell apoptosis; assay type: cell-based, human; conditions: 72 hrs
Procedure: The […] effect of compounds 323-1 and 323-2 was evaluated in DU145 cells.
Data are shown as representative results of three experiments.

[1] = system: DNA-binding domain of STAT1, STAT3, STAT5A, STAT5B; assay: STAT family DNA binding assay on nuclear extracts of DU145 cells; assay type: cell-based, human; conditions: 5-20 μM, 24 hrs
Procedure: The nuclear extraction was performed according to the STAT Family Transcription Factor Assay Kit (Abcam, ab207228). First, cells were washed with ice-cold PBS and Phosphatase Inhibitors Cocktail (125 mM NaF, […] p-glycerophosphatase, 250 mM PNPP, 25 mM NaVO3) in ice-cold PBVS was added and cells scraped off the dish. Then cells were collected at 300×g for 5 minutes at 4° C. The pellet was resuspended in hypotonic buffer (20 mM Hepes pH7.5, 5 mM NaF, 10 μM Na2MoO4, 0.1 mM EDTA) and 10% NP-40 was added to a final concentration 0.5% and mixed well. The mixture was centrifugated at 4° C. for 30 seconds in a microcentrifuge and supernatant was discarded. […] Stop solution was added when the wells turned medium to dark blue followed by measurement of absorbance at OD 450 nm. […]

[2] = system: phosphorylated STAT3 (Tyr705) over pSTAT1 (S727); assay: Western blot, pSTAT3 (Tyr705) and pSTAT1 (S727) in DU145 cells; assay type: cell-based, human; conditions: 24 hrs
STAT3 = assay: DARTS (drug affinity responsive target stability) assay in EPT3M1-STAT3 cell lysates; assay type: binding, human; conditions: 200 μM
Procedure: EPT3M1-STAT3 cells were lysed with cold M-PER buffer (Thermo Fisher Scientific, Pierce cat.78501) containing protease (Roche, Basel, Switzerland, cat. no. 11836153001) and phosphatase inhibitors (Pierce cat. no. 78420) and centrifugated (18,000×g for 10 min at 4° C.). Lysates were diluted to the same final volume and proteolysed in TNC buffer [50 mM Tris-HCl (pH 8.0), 50 mM NaCl, 10 mM CaCl2]. 200 μM 323-1 or 200 μM 323-2 or the same volume of DMSO were added and incubated for 1 hour at RT. Pronase solution (1.25 mg/ml, 1:100 stock solution) was diluted serially by mixing with 1×TNC buffer to create 1:300, 1:1000, 1:3000 and 1:10000 Pronase stock aliquots. Pronase was added into both DMSO and drug groups and incubated for 30 min at RT. Digestion was stopped by adding 4× loading buffer and heating to 90° C. for 10 min immediately prior to the Western blot assay according to Lomenick, et al. (Proc Natl Acad Sci USA, 2009; 106: 21984-9) and Lomenick wt al. (ACS Chem Biol. 2011; 6: 34-46). […]

C[C@@H]1CCC(c2cc3c4c(cncc4c2)[C@@H](C)C3)=C1C=O [323-2, (15S,2R)-Delavatine A] was tested, and the Induction of apoptosis (DU145 cells) was “appeared to induce apoptosis”, the “Induction of apoptosis compared with cryptotanshinone” value (DU145 cells) was “much weaker than by cryptotanshinone” and the “Effect on DNA binding of STAT1, STAT3, STAT5A, STAT5B” value [1] was “neither 323-1 nor 323-2 affected”. The “Expression of phosphorylated STAT3 at Tyr705 compared with S3I-201” value [2] was “better effect than S3I-201”, the “Selectivity, phosphorylated STAT3 (Tyr705) over pSTAT1 (S727)” value [2] was “selective inhibitory effect” and the “Digestion of non-target proteins STAT1, JAK2, Src, β-actin” value (STAT3) was “unchanged”. For the same molecule, the “Protection of STAT3 against pronase digestion” value (STAT3) was “protection of the target protein STAT3”.
